Laboratory results published in ChEMBL document CHEMBL3797049, “Development of a competitive binding assay for the Burkholderia cenocepacia lectin BC2L-A and structure activity relationship of natural and synthetic inhibitors” (Medchemcomm, 2016).
pIC50, pKd: −log10 of the molar value. Calls of active or inactive are those of the source. The calls are words filed in the database; no cut-off is given here.

Assays:
[1] = molecular target: T1, Lectin (Burkholderia cenocepacia (strain ATCC BAA-245 / DSM 16553 / LMG 16656/ NCTC 13227 / J2315 / CF5610) (Burkholderia cepacia (strain J2315))) (UniProt B4EH87); assay: Displacement of N-(fluorescein-5-yl)-N'-(alpha-D-mannopyranosyloxyethyl)-thiocarbamide from Burkholderia cenocepacia J2315 BC2L-A expressed in Escherichia coli BL21 (DE3) cells up to 666 uM incubated for 3 to 4 hrs by fluorescence polarization assay relative to control
T1 sequence (whole entry): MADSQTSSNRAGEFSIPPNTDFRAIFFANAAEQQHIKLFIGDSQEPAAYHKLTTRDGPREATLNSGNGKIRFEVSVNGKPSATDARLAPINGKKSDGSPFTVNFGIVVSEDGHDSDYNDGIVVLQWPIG

[2] = molecular target: T2, Lectin (Burkholderia cenocepacia (strain ATCC BAA-245 / DSM 16553 / LMG 16656/ NCTC 13227 / J2315 / CF5610) (Burkholderia cepacia (strain J2315)), UniProt B4EH87); assay: Displacement of N-(fluorescein-5-yl)-N'-(alpha-D-mannopyranosyloxyethyl)-thiocarbamide from Burkholderia cenocepacia J2315 BC2L-A expressed in Escherichia coli BL21 (DE3) cells incubated for 3 to 4 hrs by fluorescence polarization assay
T2 sequence (B4EH87 whole entry): T1 sequence (whole entry)

[3] = molecular target: T2, Lectin (Burkholderia cenocepacia (strain ATCC BAA-245 / DSM 16553 / LMG 16656/ NCTC 13227 / J2315 / CF5610) (Burkholderia cepacia (strain J2315)), UniProt B4EH87); assay: Binding affinity to Burkholderia cenocepacia J2315 BC2L-A expressed in Escherichia coli BL21 (DE3) cells
[4] = Displacement of N-(fluorescein-5-yl)-N'-(alpha-L-fucopyranosyl-O-ethyl)-thiocarbamide from Pseudomonas aeruginosa LecB expressed in Escherichia coli BL21 (DE3) cells up to 666 uM incubated for 6 hrs by fluorescence polarization assay
[5] = molecular target: T2, Lectin (Burkholderia cenocepacia (strain ATCC BAA-245 / DSM 16553 / LMG 16656/ NCTC 13227 / J2315 / CF5610) (Burkholderia cepacia (strain J2315)), UniProt B4EH87); assay: Binding affinity to Burkholderia cenocepacia J2315 BC2L-A expressed in Escherichia coli BL21 (DE3) cells by microcalorimetry
[6] = molecular target: T2, Lectin (Burkholderia cenocepacia (strain ATCC BAA-245 / DSM 16553 / LMG 16656/ NCTC 13227 / J2315 / CF5610) (Burkholderia cepacia (strain J2315)), UniProt B4EH87); assay: Binding affinity to Burkholderia cenocepacia J2315 BC2L-A expressed in Escherichia coli BL21 (DE3) cells by isothermal titration calorimetry

Row | Structure (SMILES) | inhibition [1] | pIC50 [2] | further results
1 | OC[C@H]1OC[C@@H](O)[C@@H](O)[C@@H]1O | – | 5.54 | –
2 | Cc1cc(=O)oc2cc(O[C@@H]3O[C@H](CO)[C@@H](O)[C@H](O)[C@@H]3O)ccc12 | – | 5.13 | –
3 | CO[C@@H]1O[C@@H](C)[C@@H](O)[C@@H](O)[C@@H]1O | inactive | – | –
4 | C[C@H](O)[C@@H](O)[C@@H](O)[C@H](O)C=O [L-FUCOSE] | – | 3.30 | pIC50 [3]: 2.64
5 | CO[C@H]1O[C@H]([C@@H](O)CNC(C)=O)[C@@H](O)[C@H](O)[C@@H]1O | – | 3.94 | –
6 | C[C@@H]1O[C@H](CO)[C@@H](O)[C@H](O)[C@@H]1O | – | 4.89 | –
7 | C=CCO[C@H]1O[C@H](CO)[C@@H](O)[C@H](O)[C@@H]1O | – | 4.87 | –
8 | CO[C@H]1O[C@H]([C@@H](O)CNC(=O)/C=C/c2ccccc2)[C@@H](O)[C@H](O)[C@@H]1O | – | 4.19 | –
9 | Cc1cc(=O)oc2cc(O[C@H]3O[C@H](CO)[C@@H](O)[C@H](O)[C@@H]3O)ccc12 | – | 4.84 | –
10 | CO[C@H]1O[C@H]([C@@H](O)CNC(=O)c2ccccc2)[C@@H](O)[C@H](O)[C@@H]1O | – | 3.98 | –
11 | CO[C@H]1O[C@H](CO)[C@@H](O)[C@H](O)[C@@H]1O | – | 5.15 | pKd [5]: 5.57
12 | CO[C@H]1O[C@H]([C@H](O)CNC(=O)c2ccccc2)[C@@H](O)[C@H](O)[C@@H]1O | inactive | – | –
13 | CO[C@H]1O[C@H]([C@@H](O)CNS(=O)(=O)c2ccc(C)cc2)[C@@H](O)[C@H](O)[C@@H]1O | – | 4.72 | –
14 | CO[C@H]1O[C@H]([C@H](O)CNC(=O)/C=C/c2ccccc2)[C@@H](O)[C@H](O)[C@@H]1O | inactive | – | –
15 | CO[C@H]1O[C@H]([C@@H](O)CNS(=O)(=O)c2c(C)cc(C)cc2C)[C@@H](O)[C@H](O)[C@@H]1O | – | 4.86 | –
16 | CO[C@H]1O[C@@H](C)[C@@H](O)[C@@H](O)[C@@H]1O | inactive | – | –
17 | C[C@@H]1OC[C@@H](F)[C@H](O)[C@@H]1O | inactive | – | inhibition [4]: inactive
18 | CO[C@H]1OC(C(O)CO)C(O)C(O)C1O (stereo not given in full) | – | – | pKd [6]: 4.27

The next lines start with results.

Row | inhibition [1] | Structure (SMILES) | pIC50 [2] | further results
19 | inactive | C[C@@H]1OC[C@@H](O)[C@H](O)[C@@H]1O | – | –
20 | inactive | CO[C@H]1O[C@H](CCl)[C@@H](O)[C@H](O)[C@@H]1O | – | –
21 | inactive | C[C@@H]1O[C@H](C)[C@@H](O)[C@H](O)[C@@H]1O | – | –
22 | inactive | OC[C@H]1OC(O)[C@@H](O)[C@@H](F)[C@@H]1O (stereo not given in full) | – | inhibition [4]: inactive
23 | inactive | CO[C@H]1O[C@H](CI)[C@@H](O)[C@H](O)[C@@H]1O | – | –
24 | inactive | CO[C@H]1O[C@H](CBr)[C@@H](O)[C@H](O)[C@@H]1O | – | –
25 | 56% | C=CCO[C@H]1O[C@H](CO)[C@@H](O)[C@H](OC)[C@@H]1O | – | inhibition [4]: inactive
26 | inactive | CO[C@H]1O[C@H](CN)[C@@H](O)[C@H](O)[C@@H]1O | – | –
27 | inactive | OC[C@H]1OC(O)[C@@H](F)[C@@H](O)[C@@H]1O (stereo not given in full) | – | inhibition [4]: inactive
28 | inactive | C=CCO[C@H]1O[C@H](CO)[C@@H](OC)[C@H](O)[C@@H]1O | – | inhibition [4]: inactive
